Measured values: patent US20100063020A1, “ORAL PHARMACEUTICAL FORMULATIONS AND METHODS FOR PRODUCING AND USING SAME” (priority 2004, published 2010)
Converted amounts (≈) assume the structure as drawn.

What was measured:
[1] = Solubility of 17-AAG in organic solvents suitable for oral administration; type: physicochemical
Source text: In other embodiments, pharmaceutical acceptable co-solvents may be added to the phospholipid formulation to further enhance the solubility of the ansamycins. Many suitable co-solvents which are known in the art may be used. […] The resulted formulation can then be combined with any combinations of the general excipients: fillers, glidants, lubricants, disintegrants, binders, solubilizers to form the various oral compositions.

[2] = aqueous reconstituted lyophilized preparation containing sucrose; cited from earlier work
[3] = Solubility assay in simulated intestinal fluid (SIF); type: physicochemical; details: low melt form; simulated intestinal fluid per USP w/o pancreatin, 24 hours at 37° C.
Experimental: The solubility of an active ingredient may be assayed by its dissolution in a simulated intestinal fluid (SIF) (per USP w/o pancreatin). Conforma Therapeutics has developed a database of SIF solubility data using this assay for a structurally diverse set of compounds that have also been administered orally to mice.
The mixture was incubated with continuous shaking for a predetermined time and temperature, e.g., for 24 hours at 37° C. […] The solubility of the active ingredient is calculated as the difference between the initial and final concentration of the active ingredient in the supernatant normalized to the total volume of SIF used.
The tube was then sonicated for 5 minutes then incubated for 24 hours at 37° C. with shaking. […] Conforma Therapeutics has developed a database of SIF solubility data using this assay for a structurally diverse set of compounds that have also been administered orally to mice.

C=CCNC1=C2C[C@@H](C)C[C@H](OC)[C@H](O)[C@@H](C)/C=C(\C)[C@H](OC(N)=O)[C@@H](OC)/C=C\C=C(/C)C(=O)NC(=CC1=O)C2=O [Compound 17-AAG, 17-allylamino-17-demethoxygeldanamycin]
Solubility ([1]; solvent Glycerol): 1.1 mg/mL
Solubility ([1]; solvent Glycofurol): 47.0 mg/mL
Solubility ([1]; solvent Labrafil (Apricot Kernol Oil PEG-6 Esters)): 2.4 mg/mL
Solubility ([1]; solvent Labrasol (PEG-8 Caprylic/Capric Glycerides)): 16.1 mg/mL
Solubility ([1]; solvent Polyethylene glycol 400): 12.9 mg/mL
Solubility ([1]; solvent Propylene Carbonate): 12.8 mg/mL
Solubility ([1]; solvent Solutol HS15): 12.4 mg/mL
Solubility ([1]; solvent Transcutol HP (Ethoxydiglycol)): 57.7 mg/mL
Solubility ([1]; solvent Tween 80): 33.8 mg/mL
oral bioavailability [2]: 24%
solubility in SIF [3]: 0.088 mg/mL (≈ 150 µM)
